# Experimental data from ChEMBL document CHEMBL1201862, “PubChem BioAssay data set” (2004).
#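 Cultured in 96-well plates, cells were exposed to test compound for 48 hours across five concentrations. Abbreviation: GI50, concentration required for 50% inhibition of growth.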 Active and inactive are the calls of the source. Cut-off read from the data, not from the text of the source: active = GI50 up to about 1.1 µM and inactive = higher.
# Columns and labels:
# Assay in all cases: growth of human tumour cells (NCI), 48 h
# NCI-H23 = tested on: NCI-H23
# HCT-15 = tested on: HCT-15
# MDA-MB-231 = tested on: MDA-MB-231
# SF-268 = tested on: SF-268
# UO-31 = tested on: UO-31
# HCC 2998 = tested on: HCC 2998
# Malme-3M = tested on: Malme-3M
# MCF7 = tested on: MCF7
# OVCAR-3 = tested on: OVCAR-3
# HCT-116 = tested on: HCT-116
# K562 = tested on: K562
# SNB-19 = tested on: SNB-19
# M14 = tested on: M14
# NCI-H460 = tested on: NCI-H460
# SN12C = tested on: SN12C
# SK-OV-3 = tested on: SK-OV-3
# Hs-578T = tested on: Hs-578T
# HOP-92 = tested on: HOP-92
# KM12 = tested on: KM12
# MDA-N = tested on: MDA-N
# PC-3 = tested on: PC-3
# UACC-257 = tested on: UACC-257
# CAKI-1 = tested on: CAKI-1
# CCRF-CEM = tested on: CCRF-CEM
# TK-10 = tested on: TK-10
# 786-0 = tested on: 786-0
# SW-620 = tested on: SW-620
# OVCAR-4 = tested on: OVCAR-4
# NCI-H226 = tested on: NCI-H226
# SK-MEL-5 = tested on: SK-MEL-5
# ACHN = tested on: ACHN
# HT-29 = tested on: HT-29
# SK-MEL-2 = tested on: SK-MEL-2
# NCI/ADR-RES = tested on: NCI/ADR-RES
# A498 = tested on: A498
# NCI-H522 = tested on: NCI-H522
# T47D = tested on: T47D
# COLO 205 = tested on: COLO 205
# OVCAR-5 = tested on: OVCAR-5
# IGROV-1 = tested on: IGROV-1
# A549 = tested on: A549
# OVCAR-8 = tested on: OVCAR-8
# MDA-MB-435 = tested on: MDA-MB-435
# EKVX = tested on: EKVX
# DU-145 = tested on: DU-145
# LOX IMVI = tested on: LOX IMVI
# RPMI-8226 = tested on: RPMI-8226
# SF-295 = tested on: SF-295
# HL-60 = tested on: HL-60
# SK-MEL-28 = tested on: SK-MEL-28
# BT-549 = tested on: BT-549
# SF-539 = tested on: SF-539
# UACC-62 = tested on: UACC-62
# U-251 = tested on: U-251
# MOLT-4 = tested on: MOLT-4
# SNB-75 = tested on: SNB-75
# HOP-62 = tested on: HOP-62
# RXF 393 = tested on: RXF 393
# SR = tested on: SR
structure (smiles),measurement,setting,value
CCCCc1ccc(NC(=N)N)cc1,GI50,NCI-H23,40.2 µM (inactive)
same,GI50,HCT-15,33 µM
same,GI50,MDA-MB-231,28.9 µM (inactive)
same,GI50,SF-268,40.2 µM (inactive)
same,GI50,UO-31,33.6 µM (inactive)
same,GI50,HCC 2998,16.3 µM (inactive)
same,GI50,Malme-3M,38.8 µM (inactive)
same,GI50,MCF7,19.7 µM (inactive)
same,GI50,OVCAR-3,24.5 µM (inactive)
same,GI50,HCT-116,24.9 µM (inactive)
same,GI50,K562,12.6 µM (inactive)
same,GI50,SNB-19,40.6 µM (inactive)
same,GI50,M14,24.2 µM (inactive)
same,GI50,NCI-H460,20.2 µM (inactive)
same,GI50,SN12C,40 µM (inactive)
same,GI50,SK-OV-3,41.5 µM (inactive)
same,GI50,Hs-578T,37.1 µM (inactive)
same,GI50,HOP-92,28.7 µM (inactive)
same,GI50,KM12,18.9 µM (inactive)
same,GI50,MDA-N,27.7 µM (inactive)
same,GI50,PC-3,23.8 µM (inactive)
same,GI50,UACC-257,33.7 µM (inactive)
same,GI50,CAKI-1,28.4 µM (inactive)
same,GI50,CCRF-CEM,16.9 µM (inactive)
same,GI50,TK-10,22.1 µM (inactive)
same,GI50,786-0,17.7 µM (inactive)
same,GI50,SW-620,44.5 µM (inactive)
same,GI50,OVCAR-4,25.4 µM (inactive)
same,GI50,NCI-H226,23.7 µM (inactive)
same,GI50,SK-MEL-5,12.9 µM (inactive)
same,GI50,ACHN,36.7 µM (inactive)
same,GI50,HT-29,25.8 µM (inactive)
same,GI50,SK-MEL-2,47.6 µM (inactive)
same,GI50,NCI/ADR-RES,29.9 µM (inactive)
same,GI50,A498,35.6 µM (inactive)
same,GI50,NCI-H522,28.1 µM (inactive)
same,GI50,T47D,31.6 µM (inactive)
same,GI50,COLO 205,19 µM (inactive)
same,GI50,OVCAR-5,50.6 µM (inactive)
same,GI50,IGROV-1,21.7 µM (inactive)
same,GI50,A549,41.5 µM (inactive)
same,GI50,OVCAR-8,38.4 µM (inactive)
same,GI50,MDA-MB-435,40.1 µM (inactive)
same,GI50,EKVX,30 µM (inactive)
same,GI50,DU-145,41.4 µM (inactive)
same,GI50,LOX IMVI,40 µM (inactive)
same,GI50,RPMI-8226,17 µM (inactive)
same,GI50,SF-295,23.9 µM (inactive)
same,GI50,HL-60,34.1 µM (inactive)
same,GI50,SK-MEL-28,58.2 µM (inactive)
same,GI50,BT-549,24.8 µM (inactive)
same,GI50,SF-539,> 10 µM (inactive)
same,GI50,UACC-62,37.3 µM (inactive)
same,GI50,U-251,85.3 µM (inactive)
COc1cc(COC(=O)N(C)[C@@H](Cc2ccccc2)C(=O)O)c([N+](=O)[O-])cc1OC,GI50,NCI-H23,> 100 µM (inactive)
same,GI50,HCT-15,> 100 µM
same,GI50,SF-268,> 100 µM (inactive)
same,GI50,UO-31,> 100 µM (inactive)
same,GI50,HCC 2998,> 100 µM (inactive)
same,GI50,Malme-3M,> 100 µM (inactive)
same,GI50,MCF7,> 100 µM (inactive)
same,GI50,OVCAR-3,> 100 µM (inactive)
same,GI50,HCT-116,> 100 µM (inactive)
same,GI50,K562,> 100 µM (inactive)
same,GI50,SNB-19,> 100 µM (inactive)
same,GI50,MOLT-4,> 100 µM (inactive)
same,GI50,M14,> 100 µM (inactive)
same,GI50,SNB-75,> 100 µM (inactive)
same,GI50,NCI-H460,> 100 µM (inactive)
same,GI50,SN12C,> 100 µM (inactive)
same,GI50,SK-OV-3,> 100 µM (inactive)
same,GI50,Hs-578T,> 100 µM (inactive)
same,GI50,HOP-92,> 100 µM (inactive)
same,GI50,KM12,> 100 µM (inactive)
same,GI50,MDA-N,> 100 µM (inactive)
same,GI50,PC-3,> 100 µM (inactive)
same,GI50,UACC-257,> 100 µM (inactive)
same,GI50,CCRF-CEM,> 100 µM (inactive)
same,GI50,786-0,> 100 µM (inactive)
same,GI50,SW-620,> 100 µM (inactive)
same,GI50,NCI-H226,> 100 µM (inactive)
same,GI50,SK-MEL-5,> 100 µM (inactive)
same,GI50,ACHN,> 100 µM (inactive)
same,GI50,HT-29,> 100 µM (inactive)
same,GI50,NCI/ADR-RES,> 100 µM (inactive)
same,GI50,T47D,> 100 µM (inactive)
same,GI50,OVCAR-5,> 100 µM (inactive)
same,GI50,HOP-62,> 100 µM (inactive)
same,GI50,IGROV-1,> 100 µM (inactive)
same,GI50,A549,> 100 µM (inactive)
same,GI50,OVCAR-8,> 100 µM (inactive)
same,GI50,MDA-MB-435,> 100 µM (inactive)
same,GI50,EKVX,> 100 µM (inactive)
same,GI50,DU-145,> 100 µM (inactive)
same,GI50,RPMI-8226,> 100 µM (inactive)
same,GI50,SF-295,> 100 µM (inactive)
same,GI50,HL-60,> 100 µM (inactive)
same,GI50,BT-549,> 100 µM (inactive)
same,GI50,SF-539,> 100 µM (inactive)
same,GI50,UACC-62,> 100 µM (inactive)
same,GI50,U-251,> 100 µM (inactive)
CCOC(=O)[C@H]1C[C@@H](C(=O)c2ccccc2)N2N=C(c3ccc(Br)cc3)C=C[C@H]12,GI50,NCI-H23,> 100 µM (inactive)
same,GI50,HCT-15,> 100 µM
same,GI50,MDA-MB-231,> 100 µM (inactive)
same,GI50,SF-268,> 100 µM (inactive)
same,GI50,UO-31,> 100 µM (inactive)
same,GI50,HCC 2998,> 100 µM (inactive)
same,GI50,MCF7,> 100 µM (inactive)
same,GI50,OVCAR-3,> 100 µM (inactive)
same,GI50,HCT-116,> 100 µM (inactive)
same,GI50,K562,> 100 µM (inactive)
same,GI50,SNB-19,> 100 µM (inactive)
same,GI50,MOLT-4,77.6 µM (inactive)
same,GI50,M14,> 100 µM (inactive)
same,GI50,SNB-75,> 100 µM (inactive)
same,GI50,NCI-H460,> 100 µM (inactive)
same,GI50,SN12C,> 100 µM (inactive)
same,GI50,RXF 393,> 100 µM (inactive)
same,GI50,SK-OV-3,> 100 µM (inactive)
same,GI50,Hs-578T,> 100 µM (inactive)
same,GI50,KM12,> 100 µM (inactive)
same,GI50,SR,9.48 µM (inactive)
same,GI50,PC-3,> 100 µM (inactive)
same,GI50,UACC-257,> 100 µM (inactive)
same,GI50,CAKI-1,> 100 µM (inactive)
same,GI50,TK-10,> 100 µM (inactive)
same,GI50,786-0,> 100 µM (inactive)
same,GI50,SW-620,> 100 µM (inactive)
same,GI50,OVCAR-4,> 100 µM (inactive)
same,GI50,NCI-H226,> 100 µM (inactive)
same,GI50,ACHN,> 100 µM (inactive)
same,GI50,SK-MEL-2,> 100 µM (inactive)
same,GI50,NCI/ADR-RES,> 100 µM (inactive)
same,GI50,A498,> 100 µM (inactive)
same,GI50,T47D,> 100 µM (inactive)
same,GI50,COLO 205,> 100 µM (inactive)
same,GI50,OVCAR-5,> 100 µM (inactive)
same,GI50,HOP-62,> 100 µM (inactive)
same,GI50,A549,> 100 µM (inactive)
same,GI50,OVCAR-8,> 100 µM (inactive)
same,GI50,MDA-MB-435,> 100 µM (inactive)
same,GI50,DU-145,> 100 µM (inactive)
same,GI50,LOX IMVI,> 100 µM (inactive)
same,GI50,RPMI-8226,> 100 µM (inactive)
same,GI50,SF-295,> 100 µM (inactive)
same,GI50,SK-MEL-28,> 100 µM (inactive)
same,GI50,BT-549,> 100 µM (inactive)
same,GI50,UACC-62,> 100 µM (inactive)
same,GI50,U-251,> 100 µM (inactive)
